US20100298252A1, “METHODS AND COMPOSITIONS FOR OPHTHALMIC TREATMENT OF FUNGAL AND BACTERIAL INFECTIONS” (priority 2004, published 2010)

How the values were obtained:
Assay type in all cases: cell-based
Enterococcus faecalis [1] = experiment: MIC and FIC index, microtiter checkerboard / broth dilution; conditions: Ent. faecalis; for MIC Individually Administered, antibiotic: antibiotic alone
Description: (§1) Agents and Chem. 210-217. (1967) and Sparks et al., Vet. Res. Comm. 18, 241-249 (1994), incorporated herein by reference in their entireties. […] Then 0.05 ml of an 18-hour old culture of a test organism, containing 10^6 colony-forming units (CFU)/ml, was added to each well. Controls for the culture and media were included in each plate. Plates were covered and incubated at 37° Celsius for 18-24 hours. […] To generate isobolograms, FICs of the two test solutions were plotted individually on the x-axis and y-axis to determine the effect of combining the two test solutions on bacterial growth. A line that curves away from, the zero point and the coordinates indicates antagonism. […] A numerical score or fractional inhibitory concentration (FIC) index was determined. The FIC index is equal to the sum of the values of FIC for the individual drugs: […] Am. Soc. Microbiol. Williams and Wilkins, Baltimore 1970), incorporated herein by reference in its entirety. […] Ps. aeruginosa, and Ent. faecalis.

Pseudomonas aeruginosa [2] = experiment: as above; conditions: Ps. aeruginosa; for MIC Individually Administered, antibiotic: antibiotic alone
Description: as §1

Staphylococcus aureus [3] = experiment: as above; conditions: Staph. aureus; for MIC Individually Administered, antibiotic: antibiotic alone
Description: as §1

Enterococcus faecalis [4] = experiment: Antibiotic resistance profile by disc diffusion; design: key: R = resistant; I = intermediate; S = sensitive; conditions: disc diffusion on MHA
Description: (§2) The organisms of this study were isolated from human burn patients. They included strains of methicillin resistant Staphylococcus aureus, and vancomycin resistant strains of Pseudomonas aeruginosa and Enterococcus faecalis. The bacterial isolates were propagated in or on Brain Heart Infusion broth (BHI), Mueller-Hinton Broth (MHB), blood agar (BA), Mueller-Hinton agar (MHA), enterococcus agar (EA), or 2× nutrient agar (2×NA).
(§3) Antibiotic resistance profiles were determined by the disc diffusion method on MHA (5).

Pseudomonas aeruginosa [5] = experiment: Antibiotic resistance profile by disc diffusion; design: key: R = resistant; I = intermediate; S = sensitive; conditions: disc diffusion on MHA
Description: as §2, §3

Staphylococcus aureus [6] = experiment: Antibiotic resistance profile by disc diffusion; design: key: R = resistant; I = intermediate; S = sensitive; conditions: disc diffusion on MHA
Description: as §2, §3

For `CN(C)[C@@H]1C(O)=C(C(N)=O)C(=O)[C@@]2(O)C(O)=C3C(=O)c4c(O)cccc4[C@@](C)(O)[C@H]3[C@H](O)[C@@H]12` [Oxytetracycline, oxytetracycline], which “MIC Individually Administered, antibiotic” value (Enterococcus faecalis [1]) is on record?
Its value is 50 µg/mL.

What about the “MIC Individually Administered, antibiotic” value (Pseudomonas aeruginosa [2]) of the same compound?
Its value is 3 µg/mL.

What about the “MIC Individually Administered, antibiotic” value (Staphylococcus aureus [3]) of the same compound?
The value was 0.1 µg/mL.

Which results are given for `CC1(C)S[C@@H]2[C@H](NC(=O)[C@H](N)c3ccccc3)C(=O)N2[C@H]1C(=O)O` [Ampicillin, ampicillin]?
MIC Individually Administered, antibiotic (Enterococcus faecalis [1]): 1 µg/mL; MIC Individually Administered, antibiotic (Pseudomonas aeruginosa [2]): 490 µg/mL; MIC Individually Administered, antibiotic (Staphylococcus aureus [3]): 240 µg/mL; Antibiotic resistance profile (Enterococcus faecalis [4]): S; Antibiotic resistance profile (Pseudomonas aeruginosa [5]): R; Antibiotic resistance profile (Staphylococcus aureus [6]): R^B

What does the source list for `O=C(O)CN(CCN(CC(=O)O)CC(=O)O)CC(=O)O` [EDTA, ethylenediamenetetracetic acid]?
MIC Individually Administered, EDTA (Enterococcus faecalis [1]; EDTA alone in 50 mM Tris): 15630 µM; MIC Individually Administered, EDTA (Pseudomonas aeruginosa [2]; EDTA alone in 50 mM Tris): 1250 µM; MIC Individually Administered, EDTA (Staphylococcus aureus [3]; EDTA alone in 50 mM Tris): 1000 µM

For `CN[C@H](CC(C)C)C(=O)N[C@H]1C(=O)N[C@@H](CC(N)=O)C(=O)N[C@H]2C(=O)N[C@H]3C(=O)N[C@H](C(=O)N[C@H](C(=O)O)c4cc(O)cc(O)c4-c4cc3ccc4O)[C@H](O)c3ccc(c(Cl)c3)Oc3cc2cc(c3O[C@@H]2O[C@H](CO)[C@@H](O)[C@H](O)[C@H]2O[C@H]2C[C@](C)(N)[C@H](O)[C@H](C)O2)Oc2ccc(cc2Cl)[C@H]1O` [Va, vancomycin], which Antibiotic resistance profile (Enterococcus faecalis [4]) is on record?
The Antibiotic resistance profile was “R”.

And the Antibiotic resistance profile (Pseudomonas aeruginosa [5])?
The Antibiotic resistance profile was “R”.

What about the Antibiotic resistance profile (Staphylococcus aureus [6]) of the same compound?
Its Antibiotic resistance profile is “S”.

Which “MIC Individually Administered, antibiotic” value (Enterococcus faecalis [1]) does the source give for `O=C(N[C@H](CO)[C@H](O)c1ccc([N+](=O)[O-])cc1)C(Cl)Cl` [Chloramphenicol, chloramphenicol] here?
Its value is 400 µg/mL.

And the “MIC Individually Administered, antibiotic” value (Pseudomonas aeruginosa [2])?
Its value is 12500 µg/mL.

What about the “MIC Individually Administered, antibiotic” value (Staphylococcus aureus [3]) of the same compound?
The value was 390 µg/mL.

And the Antibiotic resistance profile (Enterococcus faecalis [4])?
Its Antibiotic resistance profile is “R”.

What about the Antibiotic resistance profile (Pseudomonas aeruginosa [5]) of the same compound?
Its Antibiotic resistance profile is “R”.

What about the Antibiotic resistance profile (Staphylococcus aureus [6]) of the same compound?
The Antibiotic resistance profile was “I”.

Which results are given for `NC[C@H]1O[C@H](O[C@H]2[C@H](O)[C@@H](O[C@H]3O[C@H](CO)[C@@H](O)[C@H](N)[C@H]3O)[C@H](N)C[C@@H]2N)[C@H](O)[C@@H](O)[C@@H]1O` [K, kanamycin]?
Antibiotic resistance profile (Enterococcus faecalis [4]): R; Antibiotic resistance profile (Pseudomonas aeruginosa [5]): R; Antibiotic resistance profile (Staphylococcus aureus [6]): R

Which results are given for `NCC[C@H](O)C(=O)N[C@@H]1C[C@H](N)[C@@H](O[C@H]2O[C@H](CN)[C@@H](O)[C@H](O)[C@H]2O)[C@H](O)[C@H]1O[C@H]1O[C@H](CO)[C@@H](O)[C@H](N)[C@H]1O` [Amikacin, amikacin]?
MIC Individually Administered, antibiotic (Enterococcus faecalis [1]): 2000 µg/mL; MIC Individually Administered, antibiotic (Pseudomonas aeruginosa [2]): 1 µg/mL; MIC Individually Administered, antibiotic (Staphylococcus aureus [3]): 120 µg/mL
